These results are taken from ChEMBL document CHEMBL1177798, “Interaction of aminoadamantane derivatives with the influenza A virus M2 channel-docking using a pore blocking model” (Bioorg Med Chem Lett, 2010).

The target of the assay is Matrix protein 2 (Influenza A virus, UniProt P06821). Kind of assay: Binding affinity to Influenza A Weybridge(H7N7) virus Matrix protein 2 by spectrophotometry. Details: species or system Influenza A virus (A/chicken/FPV/Weybridge(H7N7)); call rule not given here.
Matrix protein 2, sequence (P06821 whole entry): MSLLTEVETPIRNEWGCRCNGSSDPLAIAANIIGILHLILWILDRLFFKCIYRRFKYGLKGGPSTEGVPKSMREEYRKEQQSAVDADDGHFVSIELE

For the compound `NC1CCCC1` [CYCLOPENTANAMINE], the Kd result is listed as “Not Active”.
